Test [1] concerns anti-NF—H antibodies. In words: ELISA comparison of AD and NC sera with peptides; separation algorithms and grouping of peptides into FACTs. The format is binding, human. To be noted: single peptide. The protocol: A Streptavidin stock solution (2 mg/ml Streptavidin prepared in purified water, aliquoted, and stored at −20° C.) was diluted 1:400 in ddH2O and a 100 μl aliquot was added to each well of a multiwell plate (96 well C-shaped microplates). The plates were incubated at 37° C. overnight until the liquid was entirely evaporated and stored until use at 4° C. in plastic bags containing a desiccating material. Such coated plates retained their activity for at least few days. The plates were washed 4 times by immersing in TBST. 200 μl of blocking solution were added to each of the wells. The plates were then incubated for 1 hour at room temperature. 100 μl of the biotinylated peptide (1 μg/ml in TBST) were added to each of the wells with the exception of the control wells. The plates were then incubated for 1 hour at room temperature.
Following incubation, the plates were washed in TBST 4 times as above. A 100 μl aliquot of serum which was diluted in a dilution buffer was added to each well and the plates were incubated for 1 hour at room temperature.
Following this incubation the wells were washed in TBST 4 times as above. A 100 μl aliquot of a secondary antibody (Goat anti-human IgG Horse radish peroxidase conjugate) which was diluted 1:2000 in dilution buffer was added to each well and the plates were incubated for 1 hour at room temperature.
The wells were then washed in TBST 4 times as above followed by two washes in TBS (TBST w/o Tween-20).
A 100 μl aliquot of the substrate solution was added to each well and the plates were incubated at room temperature.
OD was measured at 450 nm and 620 nm every minute over a period of 10-15 minutes.
Employing the above optimized parameters, eight AD and eight NC sera were analyzed using peptide 3M (SEQ ID NO:31). The experiment was repeated over a period of four days, employing four different plates each day. Two plates were preblocked with Gelatin, while two were not. In one experiment chloroform treated serum was analyzed on two additional plates. Three AD sera consistently gave rise to high signals in all experiments. One AD serum caused high signals in 10 out of the 13 plates and four AD sera were consistently negative. One NC sera caused high signals in some of the plates in the experiments conducted on all four days. Two additional NC sera gave rise to high signals in some of the plates in the experiments conducted on three of the four days. […] The reproducibility of the experiments was assessed by averaging the rank-order numbers of each sample in every experiment (Table 3). […]
A series of experiments were performed in which 48 AD and 48 NC were analyzed by the use of 17 different peptides (INO; 2L; 2LR; 3NO; 3L; 3M; 3R; 3LM; 3LR; 4LM; 4MR; 4LMR; 5LM; 6LR; 7MR; 8LMR and 8LMR-V). […]

Test [2] deals with anti-NF—H antibodies. Briefly: Streptavidin-biotin ELISA: serum IgG binding to biotinylated NF-H peptide (protocol optimisation, pooled AD serum). Also on record: species or system human. The following applies: serum pooled from 10 AD patients; streptavidin plates blocked or not blocked; FIG. 1. As to the method:
Solutions and Materials: Tris Buffered Saline (TBS): 50 mM Tris-HCl, pH 7.4 (Tris (Sigma, T-1378); HCl (Merck 1.00319.1000)) 200 mM NaCl (Merck, 1.06404.1000). TBST: 0.05% (w/v) Tween-20 (Sigma, P-7949) in TBS. Phosphate Buffered Saline (PBS): 0.1 M phosphate buffer, pH 7.2 (Sodium phosphate, monobasic (Sigma. S-8182) and Sodium phosphate, dibasic (Sigma, S-7907)). 200 mM NaCl (Merck, 1.06404.1000). PBST: 0.05% (w/v) Tween-20 (Sigma, P-7949) in PBS. Dilution/Blocking buffer: 0.5% Gelatin (Difco, 0143-17-9) in TBST. Streptavidin stock solution: 2 mg/ml Streptavidin (Sigma, S4762) in purified water. Aliquoted and kept at −20° C., this solution is stable indefinitely. Multiwell Plates: Nunc Maxisorp (Cat. No. 442404) 96 well C-shaped microplates. Secondary antibody: Goat anti-human IgG Horse radish peroxidase conjugate (Jackson, 109-035-088). Substrate solution: 1 mg/ml OPD (Sigma, P-8412)+0.005% H2O2 (Merck, 1.07210.0250) in […] Sodium Citrate buffer, pH 5 (Merck, 1.00 244.1000).
A Streptavidin stock solution (2 mg/ml Streptavidin prepared in purified water, aliquoted, and stored at −20° C.) was diluted 1:400 in ddH2O and a 100 μl aliquot was added to each well of a multiwell plate (96 well C-shaped microplates). […]
OD was measured at 450 nm and 620 nm every minute over a period of 10-15 minutes. […]

The values below come from patent US20030148404A1, “Peptides and substances, methods and devices using same for diagnosing and treating neurodegenerative disorders” (Ramot University Authority For Applied Research & …, priority 2000, published 2003).

Non-standard residues stand in square brackets, D forms with d. No end group written: not given here. pS = N[C@@H](COP(=O)(O)O)C(=O)O

With “A K S P A E A K S(PO3H) P V K E E A K S P-OH (AKSPAEAK[pS]PVKEEAKSP-OH; N-terminus assumed; SMILES CC(C)[C@H](NC(=O)[C@@H]1CCCN1C(=O)[C@H](COP(=O)(O)O)NC(=O)[C@H](CCCCN)NC(=O)[C@H](C)NC(=O)[C@H](CCC(=O)O)NC(=O)[C@H](C)NC(=O)[C@@H]1CCCN1C(=O)[C@H](CO)NC(=O)[C@H](CCCCN)NC(=O)[C@H](C)N)C(=O)N[C@@H](CCCCN)C(=O)N[C@@H](CCC(=O)O)C(=O)N[C@@H](CCC(=O)O)C(=O)N[C@@H](C)C(=O)N[C@@H](CCCCN)C(=O)N[C@@H](CO)C(=O)N1CCC[C@H]1C(=O)O) [3M]”, in the test on anti-NF—H antibodies [1] (eight AD and eight NC samples), the sensitivity is 50% and the specificity was 87%. Further, the AD cases detected result in the test with anti-NF—H antibodies [1] (eight AD and eight NC sera, pre-blocked plates) is “four out of eight”. For the same sequence, the false positive signal result in the test on anti-NF—H antibodies [1] (eight AD and eight NC sera, pre-blocked plates (sample No. 485)) is “one”. Further, the “saturating concentration of the peptide” value with anti-NF—H antibodies [2] lay within 0.4 to 0.8 µg/mL.
